# Measured values from US11999727B2 (Tango Therapeutics, Inc., priority 2020, dated 2024).
# Key:
# PRMT5 [1] = target: T1, PRMT5 (Homo sapiens, UniProt O14744); assay: PRMT5 biochemical IC50 assay with MTA as cofactor; details: PRMT5, MTA as cofactor; read-out: MTA IC50
# T1 construct: purchased Viva (custom protein)
# [2] = system: HAP1 MTAP-intact cell line; assay: SDMA in-cell western assay, HAP1 MTAP-intact; assay type: cell-based; details: Homo sapiens, HAP1, SDMA in-cell western, HAP1 MTAP-intact; read-out: MTAP HAP1 intact IC50
# Outline: (§1)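 MTAP-null vs endogenous-MTAP HAP1 isogenic cells; in-cell western SDMA readout; IC50 per line.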
# PRMT5 [3] = target: T1, PRMT5; assay: PRMT5 biochemical IC50 assay with SAM as cofactor; details: PRMT5, SAM as cofactor; read-out: SAM IC50
# PRMT5 [4] = target: T1, PRMT5; assay: PRMT5 biochemical IC50 assay with no cofactor; details: PRMT5, no cofactor
# Excerpt: Table 1 indicates IC50 values (μM) against PRMT5 for exemplary compounds in the presence of SAM as cofactor, with no cofactor, and with MTA as cofactor, respectively (columns 4-6). […] Ki values can be calculated from the IC50 values as described in the Examples section. As detailed in the Examples section, for the assay performed in the presence of SAM, IC50=Ki×1.5 (Ki=IC50/1.5).
# [5] = system: HAP1 MTAP-deleted cell line; assay: Viability assay, MTAP-deleted cell line; assay type: cell-based; details: Homo sapiens, read-out: HAP1 MTAP deleted viability
# Excerpt: Table 1 additionally indicates IC50 values in a viability assay for the MTAP-deleted cell line (column 10), indicating the effect of treatment with compound on cell survival.
# [6] = system: HAP1 MTAP-deleted cell line; assay: SDMA in-cell western assay, HAP1 MTAP-deleted; assay type: cell-based; details: for IC50: Homo sapiens, HAP1, SDMA in-cell western, HAP1 MTAP-deleted; for MTAP intact/deleted ratio: SDMA in-cell western
# Outline: as §1
# [7] = read-out: No Cofactor/ rel IC50
# [8] = HAP1, viability assay, MTAP-deleted cell line
# [9] = read-out: HAP 1 MTAP deleted IC50
# [10] = IC50 ratio HAP1 MTAP-intact / HAP1 MTAP-deleted
# [11] = HAP1, viability assay, HAP1 MTAP-deleted
# [12] = read-out: HAP1 MTAP deleted IC50
# [13] = IC50 ratio HAP1 MTAP-intact vs HAP1 MTAP-deleted
# [14] = HAP1, viability IC50, MTAP-deleted cell line
# T1 sequence (O14744 whole entry): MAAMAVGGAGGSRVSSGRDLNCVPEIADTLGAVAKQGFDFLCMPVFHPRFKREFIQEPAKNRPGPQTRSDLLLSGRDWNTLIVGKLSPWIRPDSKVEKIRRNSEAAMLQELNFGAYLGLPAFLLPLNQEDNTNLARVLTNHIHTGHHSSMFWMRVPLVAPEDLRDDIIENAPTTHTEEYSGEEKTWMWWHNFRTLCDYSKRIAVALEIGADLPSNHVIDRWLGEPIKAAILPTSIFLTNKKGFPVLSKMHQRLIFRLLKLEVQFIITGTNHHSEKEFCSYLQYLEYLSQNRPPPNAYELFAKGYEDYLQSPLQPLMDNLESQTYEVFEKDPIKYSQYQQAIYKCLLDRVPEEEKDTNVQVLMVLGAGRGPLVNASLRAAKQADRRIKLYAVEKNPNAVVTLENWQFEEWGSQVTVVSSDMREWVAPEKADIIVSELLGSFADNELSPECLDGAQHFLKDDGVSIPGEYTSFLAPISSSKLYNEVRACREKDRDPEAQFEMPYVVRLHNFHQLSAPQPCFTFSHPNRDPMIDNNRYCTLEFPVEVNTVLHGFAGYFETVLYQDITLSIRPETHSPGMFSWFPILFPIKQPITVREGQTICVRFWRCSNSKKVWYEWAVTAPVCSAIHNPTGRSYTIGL
# T1 sequence (Q9BQA1 whole entry partner): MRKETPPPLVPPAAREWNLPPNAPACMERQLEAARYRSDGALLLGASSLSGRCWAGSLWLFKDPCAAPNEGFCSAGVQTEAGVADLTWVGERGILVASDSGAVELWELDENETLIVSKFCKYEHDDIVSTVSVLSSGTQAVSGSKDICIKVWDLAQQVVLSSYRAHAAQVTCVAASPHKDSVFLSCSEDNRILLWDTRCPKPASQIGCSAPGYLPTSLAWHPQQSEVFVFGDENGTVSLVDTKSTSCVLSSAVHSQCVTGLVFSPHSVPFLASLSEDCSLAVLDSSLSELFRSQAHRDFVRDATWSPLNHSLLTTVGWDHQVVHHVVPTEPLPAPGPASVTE
Structure (SMILES),IC50 (PRMT5 [1]) [nM],IC50 [2] [nM],IC50 (PRMT5 [3]) [nM],IC50 (PRMT5 [4]; [7]) [nM],"IC50 [5, 8] [nM]","IC50 [6, 9] [nM]","MTAP intact/deleted ratio [6, 10]",IC50 (PRMT5 [4]; read-out: No Cofactor/rel IC50) [nM],"IC50 [5, 11] [nM]","IC50 [6, 12] [nM]","MTAP intact/deleted ratio [6, 13]","IC50 ([5]; HAP1, viability, HAP1 MTAP-deleted cell line) [nM]","IC50 [5, 14] [nM]"
"C[C@@H]1CC[C@@H](C2CCCC2)N(C(=O)C(=O)Nc2cncc(C(N)=O)c2)C1 (racemic) [Compound 172, 5-(2-(2-cyclopentyl-5-methylpiperidin-1-yl)-2-oxoacetamido)nicotinamide]",< 50,> 1000,50 to 500,50 to 500,> 10000,100 to 1000,A (an IC50 ratio greater than or equal to 10 fold),–,–,–,–,–,–
"Cc1cc(NC(=O)C(=O)N2C[C@@H](C)CC[C@@H]2c2ccc(-c3nccs3)cc2)cnc1N (single isomer, unassigned) [Compound 820]",< 50,100 to 1000,50 to 500,–,–,–,B (an IC50 ratio greater than or equal to 3 fold but lower than 10 fold),50 to 500,< 1000,< 100,–,–,–
"CCc1cc(NC(=O)C(=O)N2C[C@@H](C)CC[C@@H]2c2ccc3sc(-c4ccncc4)nc3c2)cnc1N [Compound 1194, N-(6-amino-5-ethylpyridin-3-yl)-2-((2R,5S)-5-methyl-2-(2-(pyridin-4-yl)benzo[d]thiazol-5-yl)piperidin-1-yl)-2-oxoacetamide]",< 50,100 to 1000,50 to 500,–,< 1000,–,–,< 50,–,< 100,A (an IC50 ratio greater than or equal to 10 fold),–,–
"C[C@H]1CC[C@H](c2ccc3sc(C4CCN(C)CC4)nc3c2)N(C(=O)C(=O)Nc2cnc(N)c([C@H]3CCOC3)c2)C1 (single isomer, unassigned) [Compound 1312]",< 50,> 1000,< 50,< 50,–,< 100,–,–,–,–,–,< 1000,–
CCc1cc(NC(=O)C(=O)N2C[C@@H](C)CC[C@@H]2c2ccc3sc(C45CCC(CC4)N(C)C5)nc3c2)cnc1N [Compound 1217],< 50,< 100,< 50,–,< 1000,–,–,< 50,–,< 100,B (an IC50 ratio greater than or equal to 3 fold but lower than 10 fold),–,–
"Cc1cc(NC(=O)C(=O)N2C[C@H](C)CC[C@H]2c2ccc(S(C)(=O)=O)cc2)cnc1C (racemic) [Compound 649, N-(5,6-dimethyl-3-pyridyl)-2-[(2R,5S)-5-methyl-2-(4-methylsulfonylphenyl)-1-piperidyl]-2-oxo-acetamide]",50 to 500,> 1000,> 500,–,–,> 1000,B (an IC50 ratio greater than or equal to 3 fold but lower than 10 fold),50 to 500,–,–,–,–,> 10000
"NC(=O)c1cncc(NC(=O)C(=O)N2CCC3CCCCCC3C2)c1 (racemic) [Compound 133, 5-(2-{Decahydro-1H-cyclohepta[c]pyridin-2-yl}-2-oxoacetamido)pyridine-3-carboxamide]",50 to 500,> 1000,50 to 500,> 500,> 10000,> 1000,B (an IC50 ratio greater than or equal to 3 fold but lower than 10 fold),–,–,–,–,–,–
"CC1CCC(C2CCCC2)CN1C(=O)C(=O)Nc1cncc(C(N)=O)c1 (racemic) [Compound 143, 5-[2-(5-Cyclopentyl-2-methylpiperidin-1-yl)-2-oxoacetamido]pyridine-3-carboxamide]",50 to 500,> 1000,> 500,> 500,> 10000,> 1000,C (an IC50 ratio of less than 3 fold),–,–,–,–,–,–
"CNS(=O)(=O)c1cccc([C@@H]2CC[C@@H](C)CN2C(=O)C(=O)Nc2cncc(C(N)=O)c2)c1 (racemic) [Compound 666, 5-[[2-[(2S,5R)-5-methyl-2-[3-(methylsulfamoyl)phenyl]-1-piperidyl]-2-oxo-acetyl]amino]pyridine-3-carboxamide]",< 50,> 1000,50 to 500,–,–,> 1000,–,50 to 500,–,–,–,–,> 10000
"Cc1cc(NC(=O)C(=O)N2C[C@H](C)CC[C@H]2C2CCCNC2)cnc1N (mixture of isomers) [Compound 744, N-(6-amino-5-methyl-3-pyridyl)-2-[(2R,5S)-5-methyl-2-(3-piperidyl)-1-piperidyl]-2-oxo-acetamide]",50 to 500,> 1000,> 500,–,–,–,C (an IC50 ratio of less than 3 fold),> 500,> 10000,> 1000,–,–,–
"CCc1cc(NC(=O)C(=O)N2C[C@H](C)CC[C@H]2c2ccn(-c3cc[nH]n3)n2)cnc1N (single isomer, unassigned) [Compound 931]",< 50,100 to 1000,50 to 500,–,< 1000,< 100,A (an IC50 ratio greater than or equal to 10 fold),50 to 500,–,–,–,–,–
"C[C@@H]1CC[C@@H]2CCCC[C@@H]2N1C(=O)C(=O)Nc1cncc(C(N)=O)c1 (single isomer, unassigned) [Compound 236]",50 to 500,> 1000,> 500,–,> 10000,–,B (an IC50 ratio greater than or equal to 3 fold but lower than 10 fold),> 500,–,> 1000,–,–,–
"Cc1cc([C@H]2CC[C@H](C)CN2C(=O)C(=O)Nc2cncc(C(N)=O)c2)ccn1 (single isomer, unassigned) [Compound 534]",< 50,> 1000,50 to 500,–,–,100 to 1000,A (an IC50 ratio greater than or equal to 10 fold),50 to 500,–,–,–,–,1000 to 10000
"Cc1cc(NC(=O)C(=O)N2CCCC[C@@H]2C2CCCCC2)cnc1N (single isomer, unassigned) [Compound 42]",< 50,> 1000,50 to 500,50 to 500,1000 to 10000,< 100,A (an IC50 ratio greater than or equal to 10 fold),–,–,–,–,–,–
"CC(=O)N[C@H]1CCN(C(=O)C(=O)Nc2cncc(C(N)=O)c2)[C@@H](c2ccccc2)C1 (racemic) [Compound 745, 5-[[2-[(2R,4S)-4-acetamido-2-phenyl-1-piperidyl]-2-oxo-acetyl]amino]pyridine-3-carboxamide]",50 to 500,> 1000,> 500,–,–,–,C (an IC50 ratio of less than 3 fold),> 500,> 10000,> 1000,–,–,–
"C[C@H]1CC[C@H](c2cn[nH]c2)N(C(=O)C(=O)Nc2cncc(C(N)=O)c2)C1 (single isomer, unassigned) [Compound 942]",< 50,> 1000,50 to 500,–,> 10000,100 to 1000,A (an IC50 ratio greater than or equal to 10 fold),50 to 500,–,–,–,–,–
"C[C@@H]1CC[C@@H](c2cccc(S(N)(=O)=O)c2)N(C(=O)C(=O)Nc2cncc(C(N)=O)c2)C1 (racemic) [Compound 661, 5-(2-(5-methyl-2-(3-sulfamoylphenyl)piperidin-1-yl)-2-oxoacetamido)nicotinamide]",< 50,> 1000,50 to 500,–,–,> 1000,B (an IC50 ratio greater than or equal to 3 fold but lower than 10 fold),50 to 500,–,–,–,–,> 10000
"C[C@@H]1CC[C@H](c2cc(F)cc(Cl)c2)N(C(=O)C(=O)Nc2cncc(C(N)=O)c2)C1 (single isomer, unassigned) [Compound 625]",50 to 500,> 1000,50 to 500,–,–,100 to 1000,A (an IC50 ratio greater than or equal to 10 fold),> 500,–,–,–,–,> 10000
"Cc1cc(NC(=O)C(=O)N2CCCCC2c2ccncc2)cnc1N (racemic) [Compound 36, N-(6-Amino-5-methyl-3-pyridyl)-2-oxo-2-[2-(4-pyridyl)-1-piperidyl]acetamide]",< 50,> 1000,50 to 500,50 to 500,> 10000,100 to 1000,A (an IC50 ratio greater than or equal to 10 fold),–,–,–,–,–,–
